{
  "source": "patent US20030113819A1",
  "about": "“Carrier peptide and method for delivery of molecules into cells” (priority 2002, published 2003)",
  "key": {"[1]": {"test_system": "SK-OV-NTR cells (SK-OV-3 stably transfected with bacterial NTR genes)", "assay": "Nitroreductase assay, delivery of nitroreductase reporter, transfected cells", "format": "cell-based, Human", "conditions": "10 μM, 5 hour incubation", "from_the_text": "(§1) As disclosed in PCT/GB99/01746, the fluorescence properties of cyanine dyes may be modified by substitution of the dye with nitro, and/or dinitrobenzyl groups, which have the effect of reducing or abolishing the fluorescence from the molecule. An example of such a quenching or “dark” dye is Cy5Q (Amersham Pharmacia Biotech). In the presence of the enzyme, nitroreductase (NTR), a nitro-group substituent of Cy5Q may be converted to an amino-group, with the result that there is an increase in the fluorescence intensity of the dye. This may be used as the basis for an assay for the measurement of intracellular nitroreductase. In this example, Cy5Q is conjugated to a carrier peptide and is used as an indicator of nitroreductase (NTR) in whole, living cells.\n(§2) The assay may be carried out using cells transfected with DNA encoding the gene for bacterial NTR, such that when the Cy5Q conjugate is introduced into such a transfected cell line, an increase in fluorescence is measured. […]\n(§3) Cy5Q chemically linked to the carrier peptide Ac-Ala-Pro-Thr-Arg-Val-Leu-Pro-Pro-Leu-Val-Ala-Gly-Gly-Lys-amide was incubated with cells (30,000 cells/well) (1-5 hours, 5% CO2, 37° C., 95% humidity), cells washed (×3) with PBS and fluorescence measured from below, using a CytoFluor multi-well plate reader (Applied Biosystems), (activating at 610 nm, emission 670 nm). […]"}, "parental SK-OV cells": {"test_system": "parental SK-OV cells", "assay": "Nitroreductase assay, delivery of nitroreductase reporter, non-transfected cells", "format": "cell-based, Human", "conditions": "10 μM, parental cell lines, FIG. 9", "from_the_text": "as §1, §2, §3"}, "NIH 3T3": {"test_system": "NIH 3T3", "assay": "Selective permeabilisation with digitonin (cytosolic vs organelle fraction fluorescence)", "format": "cell-based, Mouse", "conditions": "60 min incubation, 20 μM digitonin 3 min, FIG. 8", "protocol": "Mouse fibroblasts (NIH 3T3) were cultured at 1×10^6 cells/ml in DMEM (see above) on 24-well tissue culture plates (Costar Inc.). Cells were incubated with Cy3- labelled carrier peptides (H2N-Ala-Pro-Thr-Arg-Val-Pro-Leu-Pro-Leu-Pro-Val-Gly-Gly-Lys-OH (SEQ ID No.4); H2N-Ala-Pro-Thr-Arg-Ala-Val-Leu-Pro-Leu-Ala-Val-Gly-Gly-Lys-OH (SEQ ID No.5); H2N-Ala-Pro-Thr-Arg-Val-Leu-Pro-Pro-Leu-Val-Ala-Gly-Gly-Lys-OH (SEQ ID No.6); H2N-Ala-Pro-Thr-Arg-Val-Leu-Leu-Pro-Leu-Leu-Val-Gly-Gly-Lys-OH (SEQ ID No.7) for 60 minutes (5% CO2, 37° C., 95% humidity). Cells were washed (×4) with PBS, before addition of 20 μM digitonin for 3 minutes. Cells were rapidly centrifuged (10,000×g, for 5 minutes) to separate into supernatant (cytosolic) and pellet (organelle) fractions. The fluorescence activity was then measured using a CytoFluor multi-well plate reader (activating at 530 nm, emission 590 nm). Unlabelled cells (cells without dye), unlabelled Cy3 (unlinked dye) (Amersham Pharmacia Biotech), and, untreated cells (unpermeabilised cells without digitonin), were used as controls. […] Cytosolic preparations were confirmed using an assay for cytoplasmic lactic dehydrogenase (LDH) in the presence of PNADH (Wroblewski & LaDue, Proc. Soc. Exp. Biol. Med. 1955, (90), 210-213."}, "NIH 3T3 cells [2]": {"test_system": "NIH 3T3 cells", "assay": "Flow cytometry of cells incubated with Cy3 linked to carrier peptide", "format": "cell-based, Mouse", "conditions": "1 μM, 60 min", "protocol": "Mouse fibroblasts (NIH 3T3 cells) were cultured in DMEM (see above) on 24-well tissue culture plates (Costar Inc.). Cells were incubated (60 min, 5% CO2, 37° C., 95% humidity) with Cy3 (1 μM) linked to carrier peptide (H2N-Ala-Pro-Thr-Arg-Val-Leu-Pro-Pro-Leu-Val-Ala-Gly-Gly-Lys-OH (SEQ ID No.6)). After incubation, the culture supernatant was decanted and the cells washed. Cells were trypsinised (0.25% w/v, 5 min) and re-suspended in PBS, before analysis by flow cytometry (see below). Untreated cells and Cy3 only (unlinked dye) (Amersham Pharmacia Biotech) were used as controls.\nAll samples were analyzed on a FACSCalibur Flow Cytometry System (Becton Dickinson, San Jose, Calif., USA) with CellQuest software. The instrument is equipped with a 488 nm argon-ion laser and 5 detection parameters. There are 2 scatter detectors, known as forward scatter (FSC) and side scatter (SSC) which provide information about cellular size and internal complexity, respectively. In addition, there are three relative fluorescence intensity detectors. Cy3 labelling was monitored with the second fluorescence detector (FL2) fitted with a 585/42 nm filter. […]\nHistogram markers were set so that only 2-3% of the recorded events were past the FL2 channel marker 30 for the dye only control."}, "NIH 3T3 cells [3]": {"test_system": "NIH 3T3 cells", "assay": "Cellular uptake of Cy3 linked to carrier peptide (plate reader, fluorescence and confocal microscopy)", "format": "cell-based, Mouse", "protocol": "Mouse fibroblasts (NIH 3T3) or human ovary adenocarcinoma (SK-OV) cells were cultured in Dulbecco's modified Eagle's medium (DMEM) supplemented with 10% (v/v) foetal calf serum (FCS), 4 mM L-glutamine, 100 U/ml penicillin and 100 μg/ml streptomycin. NIH 3T3 cells were grown on 96-well tissue culture plates (Costar Inc.) or WillCo-dishes (glass-bottomed dishes, with 0.17 mm cover glass for inverted microscopes) (WillCo), before treatment with carrier peptide. Cells were incubated (60 min, 5% CO2, 37° C., 95% humidity) with Cy3 linked to carrier peptide (H2N-Ala-Pro-Thr-Arg-Val-Leu-Pro-Pro-Leu-Val-Ala-Gly-Gly-Lys-OH) (SEQ ID No.6)) (range 1-100 μM). After incubation, the culture supernatant was decanted and the cells were washed. Cy3 (unlinked dye) (Amersham Pharmacia Biotech) was used as a control. Cellular fluorescence was detected using a CytoFluor multi-well plate reader (Applied Biosystems, Foster City, Calif., USA), (activating at 530 nm, emission 590 nm) (FIG. 1); a Nikon-Diaphot 300 fluorescence microscope, (activating at 490 nm, emission at 520 nm); and a Zeiss Microsystems confocal laser scanning microscope (LSM4) (activating at 515 nm, emission at 565 nm) (FIGS. 2 (a) and (b)). Cells were further studied for intracellular dye localization by a twenty-step Z-position sectional scanning of the cell (0.5 μm/section) using a 40× oil immersion lens (FIG. 3). […]"}, "NIH 3T3 cells [4]": {"test_system": "NIH 3T3 cells", "assay": "Cellular delivery of nuclear localization sequence (confocal microscopy)", "format": "cell-based, Mouse", "conditions": "overnight incubation, FIG. 10", "protocol": "NIH 3T3 cells were cultured (see above) on WillCo-dishes (glass-bottomed dishes, with 0.17 mm cover glass for inverted microscopes) (WillCo), before treatment with carrier peptide linked to the nuclear localization sequence. Confluent NIH 3T3 cells were incubated (overnight, 5% CO2, 37° C., 95% humidity) in the presence of Cy3-[…]amide, before washing (×3) with PBS, and visualization using a Zeiss Microsystems confocal laser scanning microscope (LSM4) (activating at 515 nm, emission at 565 nm). Controls included Cy3 linked to carrier peptide (Cy3-Ala-Pro-Thr-Arg-Val-Leu-Pro-Pro-Leu-Val-Ala-Gly-Gly-Lys-OH), and unlabelled Cy3 (unlinked dye) (Amersham Pharmacia Biotech)."}},
  "note": "Entries after “also recorded” stand apart in the source; their conditions may differ. No end group written: not given here. Cy5Q = quencher",
  "data": [
    {"substance": "Ac-Ala-Pro-Thr-Arg-Val-Leu-Pro-Pro-Leu-Val-Ala-Gly-Gly-Lys(Cy5Q)-amide (Ac-APTRVLPPLVAGGK(Cy5Q)-NH2) [carrier peptide linked to Cy5Q]", "values": [
      {"measurement": "cellular uptake and substrate conversion (Cy5Q fluorescence)", "setting": "[1]; FIG. 9", "value": "significant cellular internalization and substrate conversion"},
      {"measurement": "cellular uptake and substrate conversion (Cy5Q fluorescence)", "setting": "[1]; FIG. 9, listed as delivery peptide linked to Cy5Q", "value": "significant cellular uptake and substrate conversion"},
      {"measurement": "substrate conversion (Cy5Q fluorescence)", "setting": "parental SK-OV cells", "value": "Little conversion"}
    ]},
    {"substance": "Cy3 linked to carrier peptide (SEQ ID No.4): Cy3 dye linked through NHS ester to carrier peptide H2N-Ala-Pro-Thr-Arg-Val-Pro-Leu-Pro-Leu-Pro-Val-Gly-Gly-Lys-OH (APTRVPLPLPVGGK-OH; also: Cy3 dye linked through NHS ester, site not given here)", "values": [
      {"measurement": "delivered dye in the cytosol (supernatant fraction after digitonin)", "setting": "NIH 3T3", "value": "significant amount of delivered agent in the cytosol; also recorded: significant amount of delivered dye into the cytosol"}
    ]},
    {"substance": "Cy3 linked to carrier peptide (SEQ ID No.5): Cy3 dye linked through NHS ester to carrier peptide H2N-Ala-Pro-Thr-Arg-Ala-Val-Leu-Pro-Leu-Ala-Val-Gly-Gly-Lys-OH (APTRAVLPLAVGGK-OH; also: Cy3 dye linked through NHS ester, site not given here)", "values": [
      {"measurement": "delivered dye in the cytosol (supernatant fraction after digitonin)", "setting": "NIH 3T3", "value": "significant amount of delivered agent in the cytosol; also recorded: significant amount of delivered dye into the cytosol"}
    ]},
    {"substance": "Cy3 linked to carrier peptide (SEQ ID No.7): Cy3 dye linked through NHS ester to carrier peptide H2N-Ala-Pro-Thr-Arg-Val-Leu-Leu-Pro-Leu-Leu-Val-Gly-Gly-Lys-OH (APTRVLLPLLVGGK-OH; also: Cy3 dye linked through NHS ester, site not given here)", "values": [
      {"measurement": "delivered dye in the cytosol (supernatant fraction after digitonin)", "setting": "NIH 3T3", "value": "significant amount of delivered agent in the cytosol; also recorded: significant amount of delivered dye into the cytosol"}
    ]},
    {"substance": "Cy3-Ala-Pro-Thr-Arg-Val-Leu-Pro-Pro-Leu-Val-Ala-Gly-Gly-Lys-OH (Cy3-APTRVLPPLVAGGK-OH)", "values": [
      {"measurement": "uptake of Cy3 across the cell population (dot plots)", "setting": "NIH 3T3 cells [2]; FIG. 5", "value": "homogeneous uptake"},
      {"measurement": "increase in fluorescence geometric mean between dye control and test cells", "setting": "NIH 3T3 cells [2]; FL2 histogram, FIG. 6", "value": "approximately 5 fold"},
      {"measurement": "intracellular dye localization by twenty-step Z-position sectional scanning", "setting": "NIH 3T3 cells [3]; confocal, 0.5 μm/section, FIG. 3", "value": "dye staining in the central portion of the cell, and little staining on the periphery or cell membrane"},
      {"measurement": "uptake of Cy3 into NIH 3T3 cells (cellular fluorescence)", "setting": "NIH 3T3 cells [3]; range 1-100 μM, 60 min, CytoFluor plate reader, FIG. 1", "value": "dose-dependent uptake"},
      {"measurement": "delivered dye in the cytosol (supernatant fraction after digitonin)", "setting": "NIH 3T3", "value": "significant amount of delivered agent in the cytosol; also recorded: significant amount of delivered dye into the cytosol"}
    ]},
    {"substance": "Cy3-Ser-Ser-Asp-Asp-Glu-Ala-Thr-Ala-Ser-Asp-Gln-His-Ser-Thr-Pro-Pro-Lys-Lys-Lys-Arg-Lys-Val-Glu-Asp-Pro-Lys-Ala-Pro-Thr-Arg-Val-Leu-Pro-Pro-Leu-Val-Ala-Gly-Gly-Lys-amide", "values": [
      {"measurement": "nuclear staining compared with the controls", "setting": "NIH 3T3 cells [4]", "value": "more pronounced nuclear staining"}
    ]}
  ]
}
